Results reported in US20240317714A1, “3-[(1H-PYRAZOL-R-YL)OXY]PYRAZIN-2-AMINE COMPOUNDS AS HPK1 INHIBITOR AND USE THEREOF” (BeiGene, Ltd., priority 2020, published 2024).

Legend:
[1] = molecular target: HPK1 kinase (aal-346. Life Technologies) (Homo sapiens (Human), UniProt Q92918); experiment: HPK Kinase Activity Assay at 1 mM ATP (TR-FRET); format: biochemical; conditions: HPK1 kinase 40 nM, 0.5 μM STK1 substrate, read-out: Enzymatic activity IC50
[2] = system: pSLP76(S376) level in Jurkat cell line; experiment: Cellular pSLP76(S376) HTRF Assay; format: cell-based; conditions: Homo sapiens, Jurkat, Jurkat cells, 2 h compound treatment, stimulated with 0.05 μg/mL anti-human CD3 (OKT3) for 30 min

Sequence of HPK1 kinase (aal-346. Life Technologies) (Q92918 1-346): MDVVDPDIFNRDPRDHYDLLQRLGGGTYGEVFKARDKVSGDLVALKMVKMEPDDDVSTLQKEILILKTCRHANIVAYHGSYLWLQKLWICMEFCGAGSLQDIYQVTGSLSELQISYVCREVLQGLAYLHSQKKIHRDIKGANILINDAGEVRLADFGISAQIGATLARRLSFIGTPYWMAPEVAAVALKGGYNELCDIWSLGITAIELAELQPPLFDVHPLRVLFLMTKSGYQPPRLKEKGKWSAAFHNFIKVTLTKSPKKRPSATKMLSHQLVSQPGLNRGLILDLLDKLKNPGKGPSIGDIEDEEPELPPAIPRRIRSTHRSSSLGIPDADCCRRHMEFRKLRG

Compound | IC50 [1] [nM] | IC50 [2] [nM]
Cc1cc(-c2cnc(N)c(Oc3cnn(C4CCN(C)CC4)c3)n2)cc(C)c1CNc1ncco1 [Example A67, N-(4-(5-amino-6-((1-(1-methylpiperidin-4-yl)-1H-pyrazol-4-yl)oxy)pyrazin-2-yl)-2,6-dimethylbenzyl)oxazol-2-amine] | 17 | 76
Cc1cc(-c2cnc(N)c(Oc3cnn(C4CCN(C)CC4)c3)n2)cc(C)c1C1=CCOCC1 [Example A75, 5-(4-(3,6-dihydro-2H-pyran-4-yl)-3,5-dimethylphenyl)-3-((1-(1-methylpiperidin-4-yl)-1H-pyrazol-4-yl)oxy)pyrazin-2-amine] | 29 | 129
Cc1cc(-c2cnc(N)c(Oc3cnn(C4CCN(C)CC4)c3)n2)cc(C2(O)COC2)c1Cl [Example A84, 3-(5-(5-amino-6-((1-(1-methylpiperidin-4-yl)-1H-pyrazol-4-yl)oxy)pyrazin-2-yl)-2-chloro-3-methylphenyl)oxetan-3-ol] | 58 | 83
Cc1cc(-c2cnc(N)c(Oc3cnn(C4CCN(C)CC4)c3)n2)cc(C)c1CNC1COC1 [Example A55, 5-(3,5-dimethyl-4-((oxetan-3-ylamino)methyl)phenyl)-3-((1-(1-methylpiperidin-4-yl)-1H-pyrazol-4-yl)oxy)pyrazin-2-amine] | 34 | 111
Cc1cc(-c2cnc(N)c(Oc3cnn(C4CCN(C)CC4)c3)n2)cc([C@H]2CCC(=O)N2)c1 [Example A61A, (R)-5-(3-(5-amino-6-((1-(1-methylpiperidin-4-yl)-1H-pyrazol-4-yl)oxy)pyrazin-2-yl)-5-methylphenyl)pyrrolidin-2-one] | 253 | 
Cc1cc(-c2cnc(N)c(Oc3cnn(C4CCN(C)CC4)c3)n2)cc(C2(O)CCCC2)c1 [Example A65, 1-(3-(5-amino-6-((1-(1-methylpiperidin-4-yl)-1H-pyrazol-4-yl)oxy)pyrazin-2-yl)-5-methylphenyl)cyclopentan-1-ol] | 18 | 84
Cc1cc(-c2cnc(N)c(Oc3cnn(C4CCN(C)CC4)c3)n2)cc(C2(O)CCOC2)c1N1CCOCC1 (stereo not drawn) [Example A96, 3-(5-(5-amino-6-((1-(1-methylpiperidin-4-yl)-1H-pyrazol-4-yl)oxy)pyrazin-2-yl)-3-methyl-2-morpholinophenyl)tetrahydrofuran-3-ol] | 36 | 117
Cc1cc(-c2cnc(N)c(Oc3cnn(C4CCN(C)CC4)c3)n2)cc(C)c1CNS(=O)(=O)c1ccccc1 [Example A38, N-(4-(5-amino-6-((1-(1-methylpiperidin-4-yl)-1H-pyrazol-4-yl)oxy)pyrazin-2-yl)-2,6-dimethylbenzyl)benzenesulfonamide] | 37 | 125
Cc1cc(-c2cnc(N)c(Oc3cnn(C4CCN(C)CC4)c3)n2)cc(C2(O)COC2)c1C1OCCO1 [Example A87, 3-(5-(5-amino-6-((1-(1-methylpiperidin-4-yl)-1H-pyrazol-4-yl)oxy)pyrazin-2-yl)-2-(1,3-dioxolan-2-yl)-3-methylphenyl)oxetan-3-ol] | 56 | 89
Cc1cc(CCNS(C)(=O)=O)cc(-c2cnc(N)c(Oc3cnn(C4CCN(C)CC4)c3)n2)c1 [Example A12, N-(3-(5-amino-6-((1-(1-methylpiperidin-4-yl)-1H-pyrazol-4-yl)oxy)pyrazin-2-yl)-5-methylphenethyl)methanesulfonamide] | 127 | 119
Cc1cc(-c2cnc(N)c(Oc3cnn(C4CCN(C)CC4)c3)n2)cc(S(=O)(=O)NCCN2CCCCC2)c1 [Example A9, 3-(5-amino-6-((1-(1-methylpiperidin-4-yl)-1H-pyrazol-4-yl)oxy)pyrazin-2-yl)-5-methyl-N-(2-(piperidin-1-yl)ethyl)benzenesulfonamide] | 46 | 99
Cc1cc(-c2cnc(N)c(Oc3cnn(C4CCN(C)CC4)c3)n2)cc(C2(NS(=O)(=O)c3ccccc3)CC2)c1 [Example A20, N-(1-(3-(5-amino-6-((1-(1-methylpiperidin-4-yl)-1H-pyrazol-4-yl)oxy)pyrazin-2-yl)-5-methylphenyl)cyclopropyl)benzenesulfonamide] | 70 | 97
Cc1cc(-c2cnc(N)c(Oc3cnn(C4CCN(C)CC4)c3)n2)cc(C)c1CNCC(F)(F)F [Example A48, 5-(3,5-dimethyl-4-(((2,2,2-trifluoroethyl)amino)methyl)phenyl)-3-((1-(1-methylpiperidin-4-yl)-1H-pyrazol-4-yl)oxy)pyrazin-2-amine] | 50 | 183
CNS(=O)(=O)c1cc(C)cc(-c2cnc(N)c(Oc3cnn(C4CCN(C5CC5)CC4)c3)n2)c1 [Example A24, 3-(5-amino-6-((1-(1-cyclopropylpiperidin-4-yl)-1H-pyrazol-4-yl)oxy)pyrazin-2-yl)-N,5-dimethylbenzenesulfonamide] | 104 | 175
CN1CCC(n2cc(Oc3nc(-c4cc(N5CCCC5=O)cc(C5(O)COC5)c4)cnc3N)cn2)CC1 [Example A91, 1-(3-(5-amino-6-((1-(1-methylpiperidin-4-yl)-1H-pyrazol-4-yl)oxy)pyrazin-2-yl)-5-(3-hydroxyoxetan-3-yl)phenyl)pyrrolidin-2-one] | 11 | 199
Cc1cc(-c2cnc(N)c(Oc3cnn(C4CCN(C)CC4)c3)n2)cc(C)c1C(=O)NCCN1CCCC1 [Example A4, 4-(5-amino-6-((1-(1-methylpiperidin-4-yl)-1H-pyrazol-4-yl)oxy)pyrazin-2-yl)-2,6-dimethyl-N-(2-(pyrrolidin-1-yl)ethyl)benzamide] | 25 | 91
CNS(=O)(=O)c1cc(C)cc(-c2cnc(N)c(Oc3cnn(C4CCNCC4)c3)n2)c1 [Example A13, 3-(5-amino-6-((1-(piperidin-4-yl)-1H-pyrazol-4-yl)oxy)pyrazin-2-yl)-N,5-dimethylbenzenesulfonamide] | 139 | 120
Cc1cc(-c2cnc(N)c(Oc3cnn(C4CCN(C)CC4)c3)n2)cc(S(N)(=O)=O)c1 [Example A6, 3-(5-amino-6-((1-(1-methylpiperidin-4-yl)-1H-pyrazol-4-yl)oxy)pyrazin-2-yl)-5-methylbenzenesulfonamide] | 44 | 35
CC1OCCC1(O)c1cc(-c2cnc(N)c(Oc3cnn(C4CCN(C)CC4)c3)n2)cc(N2CCOC[C@H]2C)c1 (single isomer, unassigned) [Example A95A] | 44 | 124
Cc1cc(-c2cnc(N)c(Oc3cnn(C4CCN(C)CC4)c3)n2)cc(C2(O)CCOC2)c1N1CC2(COC2)C1 (stereo not drawn) [Example A83, 3-(5-(5-amino-6-((1-(1-methylpiperidin-4-yl)-1H-pyrazol-4-yl)oxy)pyrazin-2-yl)-3-methyl-2-(2-oxa-6-azaspiro[3.3]heptan-6-yl)phenyl)tetrahydrofuran-3-ol] | 17 | 105
CCNS(=O)(=O)c1cc(C)cc(-c2cnc(N)c(Oc3cnn(C4CCN(C)CC4)c3)n2)c1 [Example A15, 3-(5-amino-6-((1-(1-methylpiperidin-4-yl)-1H-pyrazol-4-yl)oxy)pyrazin-2-yl)-N-ethyl-5-methylbenzenesulfonamide] | 83 | 157
Cc1cc(-c2cnc(N)c(Oc3cnn(C4CCN(C)CC4)c3)n2)cc(C(F)F)c1C(=O)NCCN(C)C [Example A33, 4-(5-amino-6-((1-(1-methylpiperidin-4-yl)-1H-pyrazol-4-yl)oxy)pyrazin-2-yl)-2-(difluoromethyl)-N-(2-(dimethylamino)ethyl)-6-methylbenzamide] | 67 | 102
CCC(C)(O)c1cc(C)cc(-c2cnc(N)c(Oc3cnn(C4CCN(C)CC4)c3)n2)c1 (stereo not drawn) [Example A70, 2-(3-(5-amino-6-((1-(1-methylpiperidin-4-yl)-1H-pyrazol-4-yl)oxy)pyrazin-2-yl)-5-methylphenyl)butan-2-ol] | 6.7 | 76
Cc1cc(-c2cnc(N)c(Oc3cnn(C4CCN(C)CC4)c3)n2)cc(C(C)(C)O)c1 [Example A52, 2-(3-(5-amino-6-((1-(1-methylpiperidin-4-yl)-1H-pyrazol-4-yl)oxy)pyrazin-2-yl)-5-methylphenyl)propan-2-ol] | 70 | 118
Cc1cc(-c2cnc(N)c(Oc3cnn(C4CCN(C)CC4)c3)n2)cc(C)c1C1COCC(=O)N1 (stereo not drawn) [Example A35, 5-(4-(5-amino-6-((1-(1-methylpiperidin-4-yl)-1H-pyrazol-4-yl)oxy)pyrazin-2-yl)-2,6-dimethylphenyl)morpholin-3-one] | 47 | 123
Cc1cc(-c2cnc(N)c(Oc3cnn(C4CCN(C)CC4)c3)n2)cc([Si](C)(C)O)c1 [Example A50, (3-(5-amino-6-((1-(1-methylpiperidin-4-yl)-1H-pyrazol-4-yl)oxy)pyrazin-2-yl)-5-methylphenyl)dimethylsilanol] | 18 | 95
CN1CCC(n2cc(Oc3nc(-c4cc(N5CCC[C@H]5CO)cc(C5(O)COC5)c4)cnc3N)cn2)CC1 [Example A85, (S)-3-(3-(5-amino-6-((1-(1-methylpiperidin-4-yl)-1H-pyrazol-4-yl)oxy)pyrazin-2-yl)-5-(2-(hydroxymethyl)pyrrolidin-1-yl)phenyl)oxetan-3-ol] | 3.7 | 28
CNS(=O)(=O)c1cc(-c2cnc(N)c(Oc3cnn(C4CCN(C)CC4)c3)n2)cc(C(C)(C)C)c1 [Example A30, 3-(5-amino-6-((1-(1-methylpiperidin-4-yl)-1H-pyrazol-4-yl)oxy)pyrazin-2-yl)-5-(tert-butyl)-N-methylbenzenesulfonamide] | 111 | 330
CC1OCCC1(O)c1cc(-c2cnc(N)c(Oc3cnn(C4CCN(C)CC4)c3)n2)cc(N2CCOC[C@H]2C)c1 (single isomer, unassigned) [Example A95B] | 4.5 | 
C[C@@H]1COCCN1c1cc(-c2cnc(N)c(Oc3cnn(C4CCN(C)CC4)c3)n2)cc(C2(O)CCCOC2)c1 (single isomer, unassigned) [Example A90A] | 82 | 
